Like-named read-outs stand apart in the source and are kept apart here.
How the values were obtained:
[1] = target: T1, hA1AR (Homo sapiens, UniProt P30542); test: Radioligand binding competition, [3H]DPCPX, membranes from CHO-A1 cells; conditions: 1 μM, [3H]DPCPX, human CHO cells, n = 2
T1 sequence (P30542 1-326): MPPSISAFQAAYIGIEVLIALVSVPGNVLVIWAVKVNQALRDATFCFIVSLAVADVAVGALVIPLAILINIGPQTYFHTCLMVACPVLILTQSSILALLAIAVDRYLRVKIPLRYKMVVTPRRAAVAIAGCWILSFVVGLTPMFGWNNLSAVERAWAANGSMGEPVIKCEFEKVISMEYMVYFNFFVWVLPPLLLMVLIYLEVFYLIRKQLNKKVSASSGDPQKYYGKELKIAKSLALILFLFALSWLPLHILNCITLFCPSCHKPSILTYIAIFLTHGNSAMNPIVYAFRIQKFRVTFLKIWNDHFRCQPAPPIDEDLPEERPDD
Experimental: (§1) All ligands reported in Tables 1–5 were obtained and tested as racemic mixtures. The whole set was evaluated in silico with a combination of a Rdkit[37] PAINS filter and Instant JChem from Chemaxon (https://www.chemaxon.com), to rule out the possibility that these ligands can be promiscuous pan-assay interference compounds (PAINS) and to assess their bioavailability, respectively. […] The stereoisomers of selected compounds were obtained by chiral resolution and tested at the four human AR subtypes in their enantiopure forms (Table 6).
(§2) A brief description is given below. […] Non-specific binding was determined in the presence of 10 μM R-PIA. The reaction mixture was incubated at 25 °C for 60 min. […] The reaction mixture was incubated at 25 °C for 30 min. […] The reaction mixture was incubated at 25 °C for 30 min. […] Non-specific binding was determined in the presence of 100 μM R-PIA. […] After the incubation time, membranes were washed and filtered and radioactivity was detected in a MicroBeta TriLux reader (PerkinElmer).

[2] = target: T2, hA2BAR (Homo sapiens, UniProt P29275); test: Radioligand binding competition, [3H]DPCPX, membranes from HEK-293-A2B cells; parameters: Exp. dG: unit not given here; conditions: for % at 1 μM hA2B (percentage displacement of specific binding): [3H]DPCPX, human HEK-293 cells, n = 2; for Ki: read-out: Ki hA2B; for Exp. dG: experimental binding free energy, Supplementary Table S3, unit not given (errors in kcal/mol)
T2 construct: host or cells: HEK-293 (HEK-293-A2B) cell membranes
T2 sequence (P29275 1-332): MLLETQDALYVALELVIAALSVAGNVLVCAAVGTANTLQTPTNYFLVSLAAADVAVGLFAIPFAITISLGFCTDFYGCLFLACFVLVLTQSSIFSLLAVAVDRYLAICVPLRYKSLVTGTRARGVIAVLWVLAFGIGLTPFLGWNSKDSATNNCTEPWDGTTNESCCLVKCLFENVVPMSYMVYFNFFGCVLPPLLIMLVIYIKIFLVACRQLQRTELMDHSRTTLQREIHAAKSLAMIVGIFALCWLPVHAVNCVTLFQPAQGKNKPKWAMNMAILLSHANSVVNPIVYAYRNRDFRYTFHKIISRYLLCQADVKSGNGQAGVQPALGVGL
Experimental: as §1, §2

[3] = target: T3, hA3AR (Homo sapiens, UniProt P0DMS8); test: Radioligand binding competition, [3H]NECA, membranes from HeLa-A3 cells; conditions: 1 μM, [3H]NECA, human HeLa cells, n = 2
T3 construct: expressed in transfected cells; host or cells: HeLa (HeLa-A3) cell membranes
T3 sequence (P0DMS8 1-318): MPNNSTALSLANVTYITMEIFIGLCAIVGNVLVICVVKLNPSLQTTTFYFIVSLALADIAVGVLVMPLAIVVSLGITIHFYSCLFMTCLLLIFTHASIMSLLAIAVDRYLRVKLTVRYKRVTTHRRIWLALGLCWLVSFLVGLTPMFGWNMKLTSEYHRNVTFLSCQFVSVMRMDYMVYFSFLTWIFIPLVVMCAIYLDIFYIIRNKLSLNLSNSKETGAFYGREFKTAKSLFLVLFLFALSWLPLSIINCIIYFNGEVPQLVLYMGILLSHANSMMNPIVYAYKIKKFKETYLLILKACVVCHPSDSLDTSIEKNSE
Experimental: as §1, §2

[4] = target: T4, hA2AAR (Homo sapiens, UniProt P29274); test: Radioligand binding competition, [3H]ZM241385, membranes from HeLa-A2A cells; conditions: 1 μM, [3H]ZM241385, human HeLa cells, n = 2
T4 construct: expressed in transfected cells; host or cells: HeLa (HeLa-A2A) cell membranes
Experimental: as §1, §2

[5] = displacement of specific [3H]DPCPX binding in human HEK-293 cells, n = 3

T4 sequence (P29274 whole entry): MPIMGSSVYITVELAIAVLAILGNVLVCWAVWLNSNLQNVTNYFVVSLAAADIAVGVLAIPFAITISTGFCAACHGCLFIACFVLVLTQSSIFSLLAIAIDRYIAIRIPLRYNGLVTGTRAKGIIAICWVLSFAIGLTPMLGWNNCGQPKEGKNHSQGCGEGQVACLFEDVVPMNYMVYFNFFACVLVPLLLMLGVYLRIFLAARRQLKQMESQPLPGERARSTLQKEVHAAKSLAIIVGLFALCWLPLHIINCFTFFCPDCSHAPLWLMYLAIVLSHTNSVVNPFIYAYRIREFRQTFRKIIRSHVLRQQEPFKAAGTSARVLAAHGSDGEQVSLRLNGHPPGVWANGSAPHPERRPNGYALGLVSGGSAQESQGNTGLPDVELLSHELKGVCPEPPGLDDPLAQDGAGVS

| Compound | % at 1 μM hA1 (percentage displacement of specific binding) [1] | % at 1 μM hA2B (percentage displacement of specific binding) [2] | % at 1 μM hA3 (percentage displacement of specific binding) [3] | % at 1 μM hA2A (percentage displacement of specific binding) [4] | Ki [2, 5] | Exp. dG [2] | Ki [2] |
| --- | --- | --- | --- | --- | --- | --- | --- |
| CC1=C(C(=O)OC(C)C)C(c2ccoc2)n2c(nc3cc(Br)c(Br)cc32)N1 (stereo not shown) [14t] | 1% | 32% | 9% | 1% | – | – | – |
| CCOC(=O)C1=C(C)Nc2nc3cc(Br)c(Br)cc3n2C1c1cccs1 (stereo not shown) [14u] | 2% | 12% | 5% | 7% | – | – | – |
| CC1=C(C(=O)OC(C)C)C(c2cccs2)n2c(nc3cc(Br)c(Br)cc32)N1 (stereo not shown) [14v] | 1% | 9% | 3% | 1% | – | – | – |
| CCOC(=O)C1=C(C)Nc2nc3cc(Br)c(Br)cc3n2C1c1ccsc1 (stereo not shown) [14w] | 2% | 47% | 4% | 7% | – | – | – |
| CC1=C(C(=O)OC(C)C)C(c2ccsc2)n2c(nc3cc(Br)c(Br)cc32)N1 (stereo not shown) [14x] | 4% | 9% | 8% | 1% | – | – | – |
| CCOC(=O)C1=C(C)Nc2nc3ccc(F)cc3n2C1c1ccco1 (stereo not shown) [15a] | 16% | – | 10% | 2% | 67.5 ± 3.1 nM | -9.777 | – |
| CC1=C(C(=O)OC(C)C)C(c2ccco2)n2c(nc3ccc(F)cc32)N1 (stereo not shown) [15b] | 32% | – | 5% | 3% | 12.2 ± 1.2 nM | -10.79 | – |
| CCOC(=O)C1=C(C)Nc2nc3ccc(F)cc3n2C1c1ccoc1 (stereo not shown) [15c] | 26% | – | 5% | 21% | 25 ± 1.5 nM | -9.361 | – |
| CC1=C(C(=O)OC(C)C)C(c2ccoc2)n2c(nc3ccc(F)cc32)N1 (stereo not shown) [15d] | 25% | – | 6% | 11% | 136 ± 7 nM | -10.36 | – |
| CCOC(=O)C1=C(C)Nc2nc3ccc(F)cc3n2C1c1cccs1 (stereo not shown) [15e] | 25% | 37% | 11% | 1% | – | – | – |
| CC1=C(C(=O)OC(C)C)C(c2cccs2)n2c(nc3ccc(F)cc32)N1 (stereo not shown) [15f] | 11% | 23% | 6% | 2% | – | – | – |
| CCOC(=O)C1=C(C)Nc2nc3ccc(F)cc3n2C1c1ccsc1 (stereo not shown) [15g] | 7% | – | 3% | 1% | 1030 ± 95 nM | -8.162 | – |
| CC1=C(C(=O)OC(C)C)C(c2ccsc2)n2c(nc3ccc(F)cc32)N1 (stereo not shown) [15h] | 1% | – | 1% | 1% | 764 ± 11 nM | -8.34 | – |
| CCOC(=O)C1=C(C)Nc2nc3ccc(Cl)cc3n2C1c1ccco1 (stereo not shown) [15i] | 26% | 18% | 4% | 2% | – | – | – |
| CCOC(=O)C1=C(C)Nc2nc3ccc(Cl)cc3n2C1c1ccoc1 (stereo not shown) [15k] | 22% | – | 3% | 30% | 47.3 ± 1.9 nM | -9.987 | ~45 nM |
| CC1=C(C(=O)OC(C)C)C(c2ccoc2)n2c(nc3ccc(Cl)cc32)N1 (stereo not shown) [15l] | 6% | 50% | 3% | 4% | – | – | – |
| CCOC(=O)C1=C(C)Nc2nc3ccc(Cl)cc3n2C1c1cccs1 (stereo not shown) [15m] | 2% | 1% | 1% | 3% | – | – | – |
| CC1=C(C(=O)OC(C)C)C(c2cccs2)n2c(nc3ccc(Cl)cc32)N1 (stereo not shown) [15n] | 1% | 7% | 1% | 3% | – | – | – |
| CCOC(=O)C1=C(C)Nc2nc3ccc(Cl)cc3n2C1c1ccsc1 (stereo not shown) [15o] | 4% | 50% | 3% | 2% | – | – | – |
| CC1=C(C(=O)OC(C)C)C(c2ccsc2)n2c(nc3ccc(Cl)cc32)N1 (stereo not shown) [15p] | 7% | 48% | 3% | 9% | – | – | – |
| CCOC(=O)C1=C(C)Nc2nc3ccc(Br)cc3n2C1c1ccco1 (stereo not shown) [15q] | 22% | 48% | 5% | 21% | – | – | – |
| CC1=C(C(=O)OC(C)C)C(c2ccco2)n2c(nc3ccc(Br)cc32)N1 (stereo not shown) [15r] | 46% | – | 6% | 1% | 273 ± 4 nM | – | ~45 nM |

From article PMC9841532, “Exploring the Effect of Halogenation in a Series of Potent and Selective A2B Adenosine Receptor Antagonists” (Journal of Medicinal Chemistry, 2022)
